From paper PMC12631873 (Advanced Science, 2025)
Square brackets hold non-standard residues; d marks the D form. Peptide text beside a SMILES is read from it. * marks the point of attachment. X1 = CN1/C(=C/C=C/C=C/C2=[N+](CCCCCC(=O)*)c3ccc(S(=O)(=O)[O-])cc3C2(C)C)C(C)(C)c2cc(S(=O)(=O)O)ccc21; Hyp = O=C(O)[C@@H]1C[C@@H](O)CN1; Nlys = NCCCCNCC(=O)O; Ahx = NCCCCCC(=O)O

Legend:
[1] = system: rat chondrocytes; assay: CCK-8 cell viability assay on rat chondrocytes; type: cell-based; conditions: n = 4 wells
Procedure: The cultures were maintained under standard conditions of 37 °C and 5% CO2. Chondrocytes collected from the articular cartilage of Sprague‐Dawley (SD) rats (purchased from Jennio Biotech, JNO‐720) were cultured in DMEM medium (Precell, PM150210). Human venous endothelial cells (HUVECs, purchased from iCell, iCell‐h110) were cultured in HUVEC medium (iCell, iCell‐h110‐001b). Both cells were seeded in 96‐well plates at a density of 5000 cells per well. The medium was supplemented with 10% fetal bovine serum (FBS, Precell, 164210) and penicillin‐streptomycin (1:100 diluted from a 100× stock solution, ThermoFisher, 15140122) to support cell growth and prevent bacterial contamination. […] Cell viability was assessed using the CCK‐8 assay kit (GLPBIO, GK10001−5) according to the manufacturer's instructions. After further incubation for 4 h, the optical density (OD) of the CCK‐8 solution was measured at 450 nm using a microplate reader (PerkinElmer, EnVision). […] The fluorescence images were obtained using an EVOS M7000 imaging system (Light cubes: GFP and RFP, Objective: 10×). A microscopic image was taken from the live (Calcein AM) staining of each well, and the total fluorescence signals were quantified for each image. The mean fluorescence level of each probe's group was normalized to the blank control group to estimate the relative cell viability. […]

[2] = Serum stability test (HPLC); type: in vitro ADME, mouse; conditions: 37 °C, HPLC UV 646 nm, n = 3; for degradation in serum (in words): 25% v/v mouse serum, 24 h and even after 48 h
Procedure: Cy5‐labeled peptidomimetic probes (10 nmol) were incubated in 25% v/v mouse serum (Biosharp, BL1053A diluted in 1× PBS) at 37 °C. Aliquots (200 µL) were taken periodically at 0 (deadtime: ≈10 min), 2, 24, and 48 h, and added to 400 µL of 3.75% trichloroacetic acid in acetonitrile at 4 °C. Then, all samples were centrifuged to remove the precipitated serum proteins at 13800 g for 10 min at 4 °C. The supernatant (150 µL) was taken to mix with 550 µL of water (with 0.1% TFA) to centrifuge again at 2630 g for 5 min at 4 °C. Five microliter of the supernatant was mixed with 200 µL of water containing 0.1% TFA as the final samples for HPLC analysis at room temperature monitored by absorbance at 646 nm with the integral area of the intact fraction recorded. The peak area for the 10 min time point was designated as 100% intact, and each peak area at successive time points was normalized to the 10 min peak to calculate the percent compound remaining. All the experiments were repeated three times.

Compound	cytotoxicity to chondrocytes over 72 h (CCK-8) ([1]; tested concentrations 0-40 µM, 72 h)	degradation in serum (in words) [2]	cytotoxicity to cultured chondrocytes (CCK8), in words ([1]; 0-40 µM, 24 h)	intact compound remaining after 2 h serum incubation ([2]; 25% v/v mouse serum in 1× PBS, 10 nmol probe, peak area normalized to 10 min)
CN1/C(=C/C=C/C=C/C2=[N+](CCCCCC(=O)NCCCCCC(=O)N(CCCCN)CC(=O)N3C[C@H](O)C[C@H]3C(=O)N(CCCCN)CC(=O)N3C[C@H](O)C[C@H]3C(=O)N(CCCCN)CC(=O)N3C[C@H](O)C[C@H]3C(=O)N(CCCCN)CC(=O)N3C[C@H](O)C[C@H]3C(=O)N(CCCCN)CC(=O)N3C[C@H](O)C[C@H]3C(=O)N(CCCCN)CC(=O)N3C[C@H](O)C[C@H]3C(=O)N(CCCCN)CC(=O)N3C[C@H](O)C[C@H]3C(N)=O)c3ccc(S(=O)(=O)[O-])cc3C2(C)C)C(C)(C)c2cc(S(=O)(=O)O)ccc21 [Cy5‐(NlysO)7] ({X1-Ahx}-[Nlys][Hyp][Nlys][Hyp][Nlys][Hyp][Nlys][Hyp][Nlys][Hyp][Nlys][Hyp][Nlys][Hyp]-NH2)	did not show cytotoxicity	hardly degraded		
CN1/C(=C/C=C/C=C/C2=[N+](CCCCCC(=O)NCCCCCC(=O)N[C@@H](CCCNC(=N)N)C(=O)N[C@@H](CCCNC(=N)N)C(=O)N[C@@H](CCCNC(=N)N)C(=O)N[C@@H](CCCNC(=N)N)C(=O)N[C@@H](CCCNC(=N)N)C(=O)N[C@@H](CCCNC(=N)N)C(=O)N[C@@H](CCCNC(=N)N)C(=O)N[C@@H](CCCNC(=N)N)C(N)=O)c3ccc(S(=O)(=O)[O-])cc3C2(C)C)C(C)(C)c2cc(S(=O)(=O)O)ccc21 [Cy5‐R8, reference compound]		extremely unstable	significant cytotoxicity	no intact R8 peptide remained
